Reference: US20220226321A1, “INHIBITOR OF MNK FOR THE TREATMENT OF NEUROPATHIC PAIN” (Board of Regents, The University of Texas System, priority 2019, published 2022)
“Also recorded” adds a separate entry of the source.

Experiments:
paclitaxel-treated mice = assay: mechanical paw withdrawal threshold (von Frey) in paclitaxel-induced CIPN; format: in vivo, mouse; conditions: intrathecal 10 μg, paclitaxel-induced pain
cultured DRG neurons = assay: Western blot of cultured DRG neurons treated with IFN-α, IFN-β, ISRIB or poly (I:C); format: cell-based, mouse; conditions: ISRIB 200 nM
Method: Primary cell culture of mouse DRG neurons and Western blot. Cultured primary DRG neurons were used to test the effects of IFN-α [(300 units (U)/mL] and IFN-β [(300 units (U)/mL] application. For these experiments, mice were anesthetized with isoflurane and killed by decapitation. Then DRGs, from all spinal levels, were dissected and placed in chilled Hanks balanced-salt solution (HBSS, Invitrogen) until processed. Dorsal root ganglia were digested in 1 mg/mL collagenase A (Roche, Mannheim, Germany) for 25 minutes at 37° C. then subsequently digested in a 1:1 mixture of 1 mg/mL collagenase D and papain (Roche) for 20 minutes at 37° C. After this step, dorsal root ganglia were then triturated in a 1:1 mixture of 1 mg/mL trypsin inhibitor (Roche) and bovine serum albumin (BioPharm Laboratories, Bluffdale, Utah), then filtered through a 70 μm cell strainer (Corning, N.Y.). Cells were pelleted then resuspended in DMEM/F12 with GlutaMAX (Thermo Fisher Scientific, MA) containing 10% fetal bovine serum (FBS; Thermo Fisher Scientific), 5 ng/mL NGF, 1% penicillin and streptomycin, and […] to inhibit mitosis of non-neuronal cells and were distributed evenly in a 6-well plate coated with poly-D-lysine (Becton Dickinson, NJ). DRG neurons were maintained in a 37° C. incubator containing 5% CO2 with a media change every other day. On day 6, DRG neurons were treated with either vehicle, IFN-α or IFN-β for 1, 3, 6 and 24 h. Following treatments, cells were rinsed with chilled 1×PBS buffer, harvested in 200 μL of RIPA lysis buffer (50 mM Tris, pH 7.4, 150 mM NaCl, 1 mM EDTA, pH 8.0, and 1% Triton X-100) containing protease and phosphatase inhibitors (Sigma-Aldrich), and then sonicated for 5 seconds. To clear debris, samples were centrifuged at 14,000 rpm for 15 min at 4° C. Ten to 15 μg of protein was loaded into each well and separated by a 10% SDS-PAGE gel. Proteins were transferred to a 0.45 PVDF membrane (Millipore, MA) at 30 V overnight at 4° C. Subsequently, membranes were blocked with 5% non-fat dry milk in 1× Tris buffer solution containing Tween 20 (TTBS) for at least 2 h. Membranes were washed 3 times for 10 minutes each (3×10) in 1×TTBS, then incubated with primary antibodies overnight at 4° C. The following day, membranes were washed 3×10 each then incubated with the corresponding secondary antibodies at room temperature for 1 h. After incubation, membranes were washed with 1×TTBS 3×10 each. Signals were detected using Immobilon Western Chemiluminescent HRP Substrate (Millipore) and then visualized with Bio-Rad ChemiDoc Touch. Membranes were stripped using Restore Western Blot Stripping buffer (Thermo Fisher Scientific) and reprobed with another antibody. Analysis was performed using Image lab 6.0.1 software for Mac (Bio-Rad, Hercules, Calif.).

[1] = tested on: cultured mouse DRG neurons; assay: microelectrode array (MEA) recordings of cultured DRG neurons exposed to IL-6; format: cell-based; conditions: IL-6 100 ng/ml, tomivosertib 25 nM co-treatment
Method: Extracellular electrophysiology. Substrate-integrated microelectrode array (MEA) recordings were performed using PDL and laminin pre-treated 12-well MEA plates (Axion Biosystems, USA) and an Axion Maestro recording system. DRG sensory neurons were dissected, dissociated, and seeded as previously described (Moy et al., 2017). […] Cultures were maintained at 37° C., 5% CO2, and ≥90% humidity throughout the recordings. Briefly, 30 min baseline recordings were carried out following a 30 min acclimation period. […] Recordings were then collected continuously for 3 hours. […] Online and offline MEA data analysis was performed using Axion's AxIS, NeuralMetrics Tools, and NeuroExplorer (NeuroExplorer, USA). Physiologically relevant extracellular action potentials were defined as previously described^29.

DRG neurons = assay: whole-cell patch clamp of cultured DRG neurons treated with IL-6 and eFT508; format: cell-based, mouse
Method: Phosphorylation of the 5′ cap-binding protein eIF4E by MAPK interacting kinases MNK1/2 is important for nociceptor sensitization and the development of chronic pain. IL-6 induced DRG nociceptor excitability is attenuated in mice lacking eIF4E phosphorylation, in MNK1/2^−/− mice and by the nonselective MNK1/2 inhibitor cercosporamide. […] Dorsal root ganglion (DRG) neurons were cultured from male and female ICR mice, 4-7 weeks old. […] Whole-cell patch clamp recordings were done on small diameter neurons (20-30 pF) to measure membrane excitability in response to ramp depolarization. […] These findings are consistent with a model wherein MNK-eIF4E signaling controls the translation of signaling factors that regulate T-type VGCCs in response to IL-6 treatment.

SNI mice [2] = assay: mechanical withdrawal threshold (von Frey) after SNI; format: in vivo, mouse; conditions: WT and 4EKI, 10 μg i.t., 2 hours after injection on each CPP conditioning day
Method: (§1) Surgery. Spared nerve injury (SNI) was performed by the ligation and cutting of the tibial and peroneal branches of the left sciatic nerve trifurcation, leaving the sural branch intact as previously described (Decosterd and Woolf, 2000). Sham surgeries were performed the same way but without cutting the nerve. Mice were allowed to recover for 2 weeks following surgery.
Mechanical withdrawal threshold. Tactile sensitivity was measured by probing the left outer surface of the left hindpaw with a series of calibrated von Frey filaments. Mechanical withdrawal thresholds were assessed in all animals before (baseline) and after (2 weeks) surgery to confirm neuropathy. Withdrawal thresholds were calculated using the up-down method (Chaplan et al., 1994).

SNI mice [3] = assay: conditioned place preference (CPP) after SNI; format: in vivo, mouse; conditions: 10 μg i.t.
Method: Conditioned Place Preference. A previously published CPP protocol from the Walters laboratory protocol was used (Yang et al., 2014). The CPP box consisted of one black and one white chamber connected by a striped chamber. CPP was conducted in a dark room with a single low lumens light source (Maia 69E120-WH). The middle chamber of the CPP box was brightly illuminated to discourage mice from spending time in the middle chamber. […] On day 1 of testing (preconditioning), each mouse was permitted to explore the middle and black (but not white) chambers for 30 minutes. […] On the last day of CPP, each mouse was placed in the middle chamber with unrestricted access to all chambers and video-recorded for 10 min. Data are presented as the percent change in time spent in the drug-paired chambered compared to the control (vehicle or sham for each genotype or surgery). This was calculated by dividing each animal's time spent in the white box by the control average, multiplying by 100 and then subtracting 100.
as §1

COc1ccc(-c2ccc3c(N4CCOC[C@@H]4C)nc(N4CCOC[C@@H]4C)nc3n2)cc1CO [AZD8055]
mechanical allodynia / hypersensitivity after first injection (paclitaxel-treated mice): robust reduction in mechanical hypersensitivity; also recorded: relieves mechanical allodynia | mechanical allodynia / hypersensitivity after second (subsequent) injection (paclitaxel-treated mice): the magnitude of this effect was decreased; also recorded: no significant effects were observed

O=C(COc1ccc(Cl)cc1)NC1CCC(NC(=O)COc2ccc(Cl)cc2)CC1 (centres unmarked) [ISRIB]
PKR phosphorylation after 24 h IFN-α (300 U/mL) in the presence of ISRIB (cultured DRG neurons): no changes | components of the signaling pathways activated after IFN-α or IFN-β application (cultured DRG neurons): did not modulate

IL-6: interleukin-6, a cytokine that evokes pain
spontaneous firing [1]: enhanced spontaneous firing | amplitudes of T-type voltage-gated calcium channels (VGCCs) (DRG neurons; IL-6, eFT508 co-treatment): increased | latency to the first action potential in the ramp protocol (DRG neurons; IL-6, eFT508 pretreatment): lower | action potential firing in response to ramp depolarization (DRG neurons; one hr IL-6, eFT508 pretreatment followed by IL-6): increased action potential firing

Clc1cccc(Cl)c1N=C1NCCN1 [clonidine]
mechanical hypersensitivity (SNI mice [2]): significantly attenuated mechanical hypersensitivity | time spent in the drug-paired chamber vs 4EKI sham (SNI mice [3]; 4EKI SNI mice): no significant difference | more time in the clonidine-paired chamber vs WT sham (SNI mice [3]; WT SNI female mice): ~30%
